Key:
[1] = target: T1, Full length Akt1 (Homo sapiens, UniProt P31749); experiment: In vitro Akt kinase enzymatic assay (HTRF), Akt1; type: biochemical; settings: 0.4 nM Akt1, substrate solution with 5 mM ATP, 25° C. 1 hr
T1 construct: Full length Akt1 (cat #P2999); purchased PerkinElmer P2999
Summary of the method: (§1)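 Full-length enzyme (0.4 nM Akt1 or 0.6 nM Akt2/Akt3 in the enzyme solution) was combined with a substrate solution of 0.1 μM ULight-Crosstide plus 5 mM ATP in pH 7.8 HEPES/MgCl2/DTT/Tween20 buffer and reacted 1 hr at 25° C. The EDTA stop contained Eu anti-phospho-Crosstide; IC50 was fitted from 11-point HTRF inhibition curves.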

[2] = target: T2, Full length Akt2 (Homo sapiens, UniProt P31751); experiment: In vitro Akt kinase enzymatic assay (HTRF), Akt2; type: biochemical; settings: 0.6 nM Akt2, substrate solution with 5 mM ATP, 25° C. 1 hr
T2 construct: Full length Akt1 (cat #P2999), Akt2 (cat #PV3184); purchased PerkinElmer PV3184
Summary of the method: as §1

[3] = target: T3, Full length Akt3 (Homo sapiens, UniProt Q9Y243); experiment: In vitro Akt kinase enzymatic assay (HTRF), Akt3; type: biochemical; settings: 0.6 nM Akt3, substrate solution with 5 mM ATP, 25° C. 1 hr
T3 construct: Full length Akt1 (cat #P2999), Akt2 (cat #PV3184), Akt3 (cat #PV3185); purchased PerkinElmer PV3185
Summary of the method: as §1

[4] = target: T4, Full length PKA (Homo sapiens, UniProt P17612); experiment: PKA in vitro enzymatic assay (HTRF); type: biochemical; settings: 0.035 nM enzyme solution, substrate solution with 5 mM ATP, 25° C. 1 hr
T4 construct: Full length PKA (cat #P2912); purchased Invitrogen P2912
Summary of the method: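 Reaction buffer was 50 mM HEPES pH 7.8, 10 mM MgCl2, 5 mM DTT and 0.005% Tween20. Enzyme solution was 0.035 nM, and substrate solution was 0.1 μM fluorescein-CREBtide with 5 mM ATP. After 1 h at 25°C, EDTA plus Tb anti-pS133 antibody was added, TR-FRET was read, and IC50 was fitted from 11-point, 3-fold % inhibition curves.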

[5] = tested on: LNCaP cells (human prostate tumor cell line); experiment: Akt LNCaP proliferation assay (MTS); type: cell-based; settings: 48 hours
Summary of the method: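 Cells plated at 10,000/well in RPMI with 2% FBS overnight at 37° C., 5% CO2, then exposed to compound at 1000 nM to 0.5 nM (3-fold dilutions) for 48 hours. Viable cells measured by MTS colorimetric read-out after 2 hours; IC50 taken as concentration giving 50% inhibition of total proliferation.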

[6] = given as a bound, final concentrations 1000 nM to 0.5 nM
[7] = 2% fetal bovine serum, class symbols

T1 sequence (P31749 whole entry): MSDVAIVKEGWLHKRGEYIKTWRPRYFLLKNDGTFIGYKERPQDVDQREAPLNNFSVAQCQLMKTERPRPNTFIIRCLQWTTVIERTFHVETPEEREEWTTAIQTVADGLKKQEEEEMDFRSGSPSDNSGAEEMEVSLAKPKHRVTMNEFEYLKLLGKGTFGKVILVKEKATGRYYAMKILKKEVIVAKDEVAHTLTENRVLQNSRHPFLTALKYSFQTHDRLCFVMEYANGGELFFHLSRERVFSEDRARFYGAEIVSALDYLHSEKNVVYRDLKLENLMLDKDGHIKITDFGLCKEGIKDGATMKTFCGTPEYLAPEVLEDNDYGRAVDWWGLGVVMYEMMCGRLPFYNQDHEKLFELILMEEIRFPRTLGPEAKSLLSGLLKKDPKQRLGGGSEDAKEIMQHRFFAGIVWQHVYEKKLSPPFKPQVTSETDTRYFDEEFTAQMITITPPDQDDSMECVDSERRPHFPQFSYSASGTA
T3 sequence (Q9Y243 whole entry): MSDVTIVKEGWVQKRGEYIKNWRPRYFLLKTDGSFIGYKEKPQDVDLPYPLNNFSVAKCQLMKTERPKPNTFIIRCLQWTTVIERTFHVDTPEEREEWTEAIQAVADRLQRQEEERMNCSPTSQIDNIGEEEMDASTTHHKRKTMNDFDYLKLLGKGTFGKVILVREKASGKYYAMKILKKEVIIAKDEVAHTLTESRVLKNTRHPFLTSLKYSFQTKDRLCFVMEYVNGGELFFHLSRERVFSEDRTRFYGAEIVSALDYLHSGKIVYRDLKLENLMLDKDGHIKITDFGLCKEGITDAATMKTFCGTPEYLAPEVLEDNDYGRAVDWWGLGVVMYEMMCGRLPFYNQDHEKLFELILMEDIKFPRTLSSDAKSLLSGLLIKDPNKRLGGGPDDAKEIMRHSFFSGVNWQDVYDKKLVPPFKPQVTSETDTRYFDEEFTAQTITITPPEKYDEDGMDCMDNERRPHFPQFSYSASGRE
T2 sequence (P31751 whole entry): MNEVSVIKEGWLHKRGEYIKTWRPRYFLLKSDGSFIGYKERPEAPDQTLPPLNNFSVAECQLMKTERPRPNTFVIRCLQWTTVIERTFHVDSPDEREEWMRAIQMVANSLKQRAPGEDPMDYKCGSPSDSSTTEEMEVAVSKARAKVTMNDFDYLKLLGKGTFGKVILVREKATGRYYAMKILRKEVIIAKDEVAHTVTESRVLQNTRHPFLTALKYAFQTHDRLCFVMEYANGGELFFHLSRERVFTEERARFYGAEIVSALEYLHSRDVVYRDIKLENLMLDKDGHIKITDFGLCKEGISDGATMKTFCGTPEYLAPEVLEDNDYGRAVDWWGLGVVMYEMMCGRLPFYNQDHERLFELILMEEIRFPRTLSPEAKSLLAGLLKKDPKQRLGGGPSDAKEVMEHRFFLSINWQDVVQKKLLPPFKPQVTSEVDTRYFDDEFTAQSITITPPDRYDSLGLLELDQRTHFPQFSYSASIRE

## Cn1ncc(Cl)c1-c1ccc2c(c1)CN([C@H](CN)Cc1cccc(-c3ccncc3)c1)C2=O [Example 72, 2-[(1S)-2-amino-1-(3-pyridin-4-ylbenzyl)ethyl]-5-(4-chloro-1-methyl-1H-pyrazol-5-yl)isoindolin-1-one]
[1]
  IC50: > 5000 nM
[2]
  IC50: > 5000 nM
[3]
  IC50: > 5000 nM
[4]
  IC50: > 5000 nM
[5]; [6]
  IC50: > 1000 nM

## Cn1ncc(Cl)c1-c1ccc2c(c1)CN([C@H](CN)Cc1cc(F)cc(F)c1)C2=O [Example 41, 2-[(1S)-2-amino-1-(3,5-difluorobenzyl)ethyl]-5-(4-chloro-1-methyl-1H-pyrazol-5-yl)isoindolin-1-one]
[1]
  IC50: < 500 nM
[2]
  IC50: < 500 nM
[3]
  IC50: < 500 nM
[4]
  IC50: 500 to 5000 nM
[5]; [7]
  IC50: < 500 nM

## Cn1ncc(Cl)c1-c1ccc2c(c1)CN([C@H](CN)Cc1cscn1)C2=O [Example 69, 2-[(1S)-2-amino-1-(1,3-thiazol-4-ylmethyl)ethyl]-5-(4-chloro-1-methyl-1H-pyrazol-5-yl)isoindolin-1-one]
[1]
  IC50: < 500 nM
[2]
  IC50: 500 to 5000 nM
[3]
  IC50: 500 to 5000 nM
[4]
  IC50: 500 to 5000 nM
[5]; [7]
  IC50: > 5000 nM

## CCn1nccc1-c1ccc2c(c1)CN([C@H](CN)Cc1cccc(F)c1)C2=O [Example 127, 2-[(1S)-2-amino-1-(3-fluorobenzyl)ethyl]-5-(1-ethyl-1H-pyrazol-5-yl)isoindolin-1-one]
[1]
  IC50: < 500 nM
[2]
  IC50: < 500 nM
[3]
  IC50: < 500 nM
[4]
  IC50: > 5000 nM
[5]; [7]
  IC50: < 500 nM

## Cc1cnn(C)c1-c1cc2c(cn1)C(=O)N([C@H](CN)Cc1cc(F)cc(F)c1)C2 [Example 103, 2-[(1S)-2-amino-1-(3,5-difluoro-benzyl)ethyl]-6-(4-methyl-1-methyl-1H-pyrazol-5-yl)-1,2-dihydro-3H-pyrrolo[3,4-c]pyridin-3-one]
[1]
  IC50: < 500 nM
[2]
  IC50: < 500 nM
[3]
  IC50: < 500 nM
[4]
  IC50: 500 to 5000 nM
[5]; [7]
  IC50: < 500 nM

## Cn1ncc(Cl)c1-c1ccc2c(c1)CN([C@H](CN)Cc1cccc(-c3cccnc3)c1)C2=O [Example 73, 2-[(1S)-2-amino-1-(3-pyridin-3-ylbenzyl)ethyl]-5-(4-chloro-1-methyl-1H-pyrazol-5-yl)isoindolin-1-one]
[1]
  IC50: 500 to 5000 nM
[2]
  IC50: > 5000 nM
[3]
  IC50: 500 to 5000 nM
[4]
  IC50: > 5000 nM
[5]; [6]
  IC50: > 1000 nM

## COCc1cnn(C)c1-c1ccc2c(c1)CN([C@H](CN)Cc1cc(F)cc(F)c1)C2=O [Example 43, 2-[(1S)-2-amino-1-(3,5-difluorobenzyl)ethyl]-5-(4-methoxymethyl-1-methyl-1H-pyrazol-5-yl)isoindolin-1-one]
[1]
  IC50: < 500 nM
[2]
  IC50: < 500 nM
[3]
  IC50: < 500 nM
[4]
  IC50: > 5000 nM
[5]; [7]
  IC50: < 500 nM

## Cn1ncc(Cl)c1-c1ccc2c(c1)CN([C@H](CN)Cc1cccnc1)C2=O [Example 65, 2-[(1S)-2-amino-1-(pyridin-3-ylmethyl)ethyl]-5-(4-chloro-1-methyl-1H-pyrazol-5-yl)isoindolin-1-one]
[1]
  IC50: < 500 nM
[2]
  IC50: < 500 nM
[3]
  IC50: < 500 nM
[4]
  IC50: > 5000 nM
[5]; [7]
  IC50: < 500 nM

## Cn1nccc1-c1ccc2c(c1)CN([C@H](CN)Cc1cc(F)cc(F)c1)C2=O [Example 40, 2-[(1S)-2-amino-1-(3,5-difluorobenzyl)ethyl]-5-(1-methyl-1H-pyrazol-5-yl)isoindolin-1-one]
[1]
  IC50: < 500 nM
[2]
  IC50: < 500 nM
[3]
  IC50: < 500 nM
[4]
  IC50: 500 to 5000 nM
[5]; [7]
  IC50: < 500 nM

## Cn1ncc(Cl)c1-c1cnc2c(c1)CN([C@H](CN)Cc1cccc(F)c1)C2=O [Example 90, 6-[(1S)-2-amino-1-(3-fluorobenzyl)ethyl]-3-(4-chloro-1-methyl-1H-pyrazol-5-yl)-5,6-dihydro-7H-pyrrolo[3,4-b]pyridin-7-one]
[1]
  IC50: < 500 nM
[2]
  IC50: < 500 nM
[3]
  IC50: < 500 nM
[4]
  IC50: > 5000 nM
[5]; [7]
  IC50: < 500 nM

## CC(C)Cn1nccc1-c1ccc2c(c1)CN([C@H](CN)Cc1cc(F)cc(F)c1)C2=O [Example 130, 2-[(1S)-2-amino-1-(3,5-difluorobenzyl)ethyl]-5-(1-isobutyl-1H-pyrazol-5-yl)isoindolin-1-one]
[1]
  IC50: 500 to 5000 nM
[2]
  IC50: > 5000 nM
[3]
  IC50: > 5000 nM
[4]
  IC50: > 5000 nM
[5]; [6]
  IC50: > 1000 nM

## CC(C)OCc1cnn(C)c1-c1ccc2c(c1)CN([C@H](CN)Cc1cccc(F)c1)C2=O [Example 6, 2-[(1S)-2-amino-1-(3-fluorobenzyl)ethyl]-5-[4-(2-propoxymethyl)-1-methyl-1H-pyrazol-5-yl]isoindolin-1-one]
[1]
  IC50: < 500 nM
[2]
  IC50: < 500 nM
[3]
  IC50: < 500 nM
[4]
  IC50: > 5000 nM
[5]; [7]
  IC50: < 500 nM

## Cn1ncc(Cl)c1-c1ccc2c(c1)CN([C@H](CN)Cc1cccc(F)c1)C2=O [Example 2, 2-[(1S)-2-amino-1-(3-fluorobenzyl)ethyl]-5-(4-chloro-1-methyl-1H-pyrazol-5-yl)isoindolin-1-one]
[1]
  IC50: < 500 nM
[2]
  IC50: < 500 nM
[3]
  IC50: < 500 nM
[4]
  IC50: 500 to 5000 nM
[5]; [7]
  IC50: < 500 nM

## Cn1nccc1-c1ccc2c(c1)CN([C@H](CN)Cc1ccccn1)C2=O [Example 79, 2-[(1S)-2-amino-1-(pyridin-2-ylmethyl)ethyl]-5-(1-methyl-1H-pyrazol-5-yl)isoindolin-1-one]
[1]
  IC50: < 500 nM
[2]
  IC50: < 500 nM
[3]
  IC50: 500 to 5000 nM
[4]
  IC50: > 5000 nM
[5]; [7]
  IC50: 500 to 5000 nM

## CSCc1cnn(C)c1-c1ccc2c(c1)CN([C@H](CN)Cc1cccc(F)c1)C2=O [Example 10]
[1]
  IC50: < 500 nM
[2]
  IC50: 500 to 5000 nM
[3]
  IC50: 500 to 5000 nM
[4]
  IC50: > 5000 nM
[5]; [7]
  IC50: 500 to 5000 nM

## C#Cc1cccc(C[C@@H](CN)N2Cc3cc(-c4ccnn4C)ccc3C2=O)c1 [Example 88, 2-[(1S)-2-amino-1-(3-ethynylbenzyl)ethyl]-5-(1-methyl-1H-pyrazol-5-yl)isoindolin-1-one]
[1]
  IC50: < 500 nM
[2]
  IC50: < 500 nM
[3]
  IC50: < 500 nM
[4]
  IC50: 500 to 5000 nM
[5]; [7]
  IC50: < 500 nM

## Cn1ncc(Cl)c1-c1ccc2c(c1)CN([C@H](CN)Cc1ccccc1F)C2=O (stereo in doubt) [Example 60, 2-[2-amino-1-(2-fluorobenzyl)ethyl]-5-(4-chloro-1-methyl-1H-pyrazol-5-yl)isoindolin-1-one]
[1]
  IC50: < 500 nM
[2]
  IC50: < 500 nM
[3]
  IC50: < 500 nM
[4]
  IC50: > 5000 nM
[5]; [7]
  IC50: < 500 nM

## CC(C)OCc1cnn(C)c1-c1cc2c(cn1)C(=O)N([C@H](CN)Cc1cccc(F)c1)C2 [Example 95, 2-[(1S)-2-amino-1-(3-fluorobenzyl)ethyl]-6-[4-(2-propoxymethyl)-1-methyl-1H-pyrazol-5-yl]-1,2-dihydro-3H-pyrrolo[3,4-c]pyridin-3-one]
[1]
  IC50: < 500 nM
[2]
  IC50: < 500 nM
[3]
  IC50: < 500 nM
[4]
  IC50: > 5000 nM
[5]; [7]
  IC50: < 500 nM

## Cn1ncc(Cl)c1-c1ccc2c(c1)CN([C@H](CN)Cc1cccc(-c3cncnc3)c1)C2=O [Example 74, 2-[(1S)-2-amino-1-(3-pyrimidin-5-ylbenzyl)ethyl]-5-(4-chloro-1-methyl-1H-pyrazol-5-yl)isoindolin-1-one]
[1]
  IC50: 500 to 5000 nM
[2]
  IC50: > 5000 nM
[3]
  IC50: > 5000 nM
[4]
  IC50: > 5000 nM
[5]; [6]
  IC50: > 1000 nM

## Cn1ncc(COCC2CC2)c1-c1ccc2c(c1)CN([C@H](CN)Cc1cc(F)cc(F)c1)C2=O [Example 48, 2-[(1S)-2-amino-1-(3,5-difluorobenzyl)ethyl]-5-[4-(cyclopropylmethoxymethyl)-1-methyl-1H-pyrazol-5-yl]isoindolin-1-one]
[1]
  IC50: < 500 nM
[2]
  IC50: < 500 nM
[3]
  IC50: < 500 nM
[4]
  IC50: 500 to 5000 nM
[5]; [7]
  IC50: < 500 nM

## Cn1nccc1-c1ccc2c(c1)CN([C@H](CN)Cc1cccnc1)C2=O [Example 78, 2-[(1S)-2-amino-1-(pyridin-3-ylmethyl)ethyl]-5-(1-methyl-1H-pyrazol-5-yl)isoindolin-1-one]
[1]
  IC50: < 500 nM
[2]
  IC50: < 500 nM
[3]
  IC50: 500 to 5000 nM
[4]
  IC50: > 5000 nM
[5]; [7]
  IC50: < 500 nM

## Cn1nccc1-c1ccc2c(c1)CN([C@H](CN)Cc1cccs1)C2=O [Example 80, 2-[(1S)-2-amino-1-(2-thienylmethyl)ethyl]-5-(1-methyl-1H-pyrazol-5-yl)isoindolin-1-one]
[1]
  IC50: < 500 nM
[2]
  IC50: < 500 nM
[3]
  IC50: < 500 nM
[4]
  IC50: 500 to 5000 nM
[5]; [7]
  IC50: < 500 nM

## Cn1ncc(F)c1-c1ccc2c(c1)CN([C@H](CN)Cc1cc(F)cc(F)c1)C2=O [Example 51, 2-[(1S)-2-amino-1-(3,5-difluorobenzyl)ethyl]-5-(4-fluoro-1-methyl-1H-pyrazol-5-yl)isoindolin-1-one]
[1]
  IC50: < 500 nM
[2]
  IC50: < 500 nM
[3]
  IC50: < 500 nM
[4]
  IC50: < 500 nM
[5]; [7]
  IC50: < 500 nM

Source: US8895571B2, “Isoindolinone and pyrrolopyridinone derivatives as Akt inhibitors” (Incyte Corporation, priority 2011, dated 2014)
